According to patent US12295973B2 (Fred Hutchinson Cancer Center, priority 2017, dated 2025):
Where a SMILES comes first, the peptide text is derived from it. [ ]: non-standard residue; d: D form. The star is where a group is joined. dPhe(4-NHCONH2) = NC(=O)Nc1ccc(C[C@@H](N)C(=O)O)cc1; Dihydroorotyl(S) = O=C1C[C@@H](C(=O)*)NC(=O)N1; dPhe(4-Cl) = N[C@H](Cc1ccc(Cl)cc1)C(=O)O; Phe(4-NH2) = Nc1ccc(C[C@H](N)C(=O)O)cc1; d2Nal = N[C@H](Cc1ccc2ccccc2c1)C(=O)O; Lys(iPr) = CC(C)NCCCC[C@H](N)C(=O)O; d3Pal = N[C@H](Cc1cccnc1)C(=O)O

Key:
Assay type in all cases: in vivo, mouse
mice exposed to L-TBI = assay: Complete blood counts (peripheral blood recovery) after L-TBI; settings: vs vehicle
Text: Description. Inhibition of sex steroids, which can be achieved in a reversible fashion pharmacologically, is a well-described strategy to promote lymphopoiesis in the BM and thymus^8,7,14,15. Although the most common method of sex steroid ablation clinically has been to use LHRH-agonists, it was described that an LHRH-Antagonist represents a more rational approach to promote immediate ablation of sex steroids for immune regeneration as it is far more rapid and abrogates the initial surge in sex steroids that LHRH-Agonist cause^16. Taken together with the impact of sex steroid inhibition on HSC function and the rapid regenerative effects of LHRH-Ant, it was hypothesized that LHRH-Ant could represent a rational non-cellular medical countermeasure for mitigating radiation injury and promoting hematopoietic regeneration when administered after hematopoietic insult. To test this hypothesis, a lethal TBI (L-TBI) dose of 840cGy that mediated lethality in more than 90% of mice (FIG. 1A) was used. […] Mouse lethality was a result of bone marrow failure, since transplant of BM Lin-Sca1^+tkit^+ (LSK) cells 3 days after L-TBI completely rescued all mice (FIG. 1B). […] It was then tested if LHRH-Ant could mediate even greater mouse survival when administered multiple times.
Methods. […] To assess mouse survival after radiation, mice were monitored for up to 60 days after TBI. […]

LT-HSCs = assay: Cell apoptosis by AnnexinV/DAPI staining after radiation exposure; settings: vs vehicle
Text: To further validate this hypothesis, two additional models were used to force HSCs out of their quiescence phase, Poly I:C and sub-lethal dose of total body irradiation (SL-TBI)^35,42,43. To eliminate any potential effects of downstream sex steroids on HSCs, all cohorts of mice in these studies had been surgically castrated.

functional HSCs = assay: Adapted competitive repopulation functional assay (BM and spleen cells of treated L-TBI mice transplanted into irradiated hosts); settings: cells collected day 14 after L-TBI; vs recipients of cells from vehicle-treated mice
Experimental: To investigate the specific regenerative effects mediated by LHRH-Ant treatment on the hematopoietic stem and progenitor cell (HSPC) compartment, BM were analyzed at several time points after L-TBI. […] To determine hematopoietic functional potential, colony-forming unit activity was next quantified to determine the effects of LHRH-Ant on the recovery of committed hematopoietic progenitor cells. […] Consistent with these functional findings, on day 14 after L-TBI, expansion of LSKs as well as their downstream progenitors in mice given LHRH-Ant were found (FIGS. 2F, 2G). […] However, given the changes in HSC phenotype after radiation, the standard competitive repopulation functional assay was adapted to evaluate the presence and relative quantity of functional HSCs after L-TBI. Specifically, all cells from the BM and spleen (to account for potential changes to circulating HSCs) were collected and transplanted from vehicle or LHRH-Ant treated mice at day 14 after L-TBI into irradiated hosts (along with a rescue dose of congenic WBM cells to ensure survival). […]
Bone marrow transplant: In the competitive BM transplant, whole BM from CD45.2+ (vehicle or LHRH-Ant) donors and were collected and transplanted into lethally irradiated CD45.1+ mice (1100 cGy TBI, split dose) along with 2.5×10^5 CD45.1+ competitors, through tail vein injection. Donor chimerism was monitored monthly after transplant. […]

SMILES: CC(=O)N[C@H](Cc1ccc2ccccc2c1)C(=O)N[C@H](Cc1ccc(Cl)cc1)C(=O)N[C@H](Cc1cccnc1)C(=O)N[C@@H](CO)C(=O)N[C@@H](Cc1ccc(NC(=O)[C@@H]2CC(=O)NC(=O)N2)cc1)C(=O)N[C@H](Cc1ccc(NC(N)=O)cc1)C(=O)N[C@@H](CC(C)C)C(=O)N[C@@H](CCCCNC(C)C)C(=O)N1CCC[C@H]1C(=O)N[C@H](C)C(N)=O [LHRH-Ant, Degarelix] (Ac-[d2Nal][dPhe(4-Cl)][d3Pal]S[Phe(4-NH2)](Dihydroorotyl(S))[dPhe(4-NHCONH2)]L[Lys(iPr)]P[dA]-NH2)
- complete blood counts recovery after L-TBI (mice exposed to L-TBI): recovered after L-TBI
- proportion of live LT-HSCs (LT-HSCs): significantly increased the proportion of live LT-HSCs
- hematopoietic reconstitution of host mice (functional HSCs): significantly better hematopoietic reconstitution
